One assay has as its target T1, F1F0-ATPase (Bos taurus, UniProt P13621).
T1 construct: from tissue
The assay can be described thus: Inhibition of F1F0-ATPase activity in synthesizing ATP. The format is biochemical. As to conditions: inhibition of ATP synthesis; read-out: ATP Syn IC50. On the procedure: (§1) The compounds listed in Table 4 were tested for activity against F1F0-ATPase by measuring the ability of the compounds to inhibit ATP synthesis. In addition, the compounds were assessed for cytotoxicity in Ramos cells Inhibition of F1F0-ATPase activity in synthesizing ATP and cytotoxicity in Ramos cells were measured according to the procedures described in K. M. Johnson et al. Chemistry & Biology 2005, 12, 485-496.

The next assay relates to Ramos cells. Put plainly: Cytotoxicity in Ramos cells. To be noted: Homo sapiens, read-out: Ramos Cell EC50. In kind it is cell-based. On the procedure: as §1

`CCOC(=O)Nc1cccc(N/C(=N\C(=O)c2ccc(F)c(F)c2)NCc2ccc(Cl)cc2F)n1` [Compound A-112]: the IC50 at F1F0-ATPase was under 10 µM. Besides, in the assay on Ramos cells, the EC50 is over 10 µM.

`CS(=O)(=O)Nc1cccc(N/C(=N\C(=O)c2ccc(F)c(F)c2)Nc2cccc(C(F)(F)F)c2)n1` [Compound A-113]: the IC50 at F1F0-ATPase was under 10 µM. Besides, the EC50 with Ramos cells was under 10 µM.

As for `CS(=O)(=O)Nc1cccc(N/C(=N\C(=O)c2ccc(C(F)(F)F)cc2)NCc2ccccc2C(F)(F)F)n1` [Compound A-114], at F1F0-ATPase, the IC50 is under 10 µM. In the assay on Ramos cells, the EC50 is under 10 µM.

As to `CCS(=O)(=O)Nc1cccc(N/C(=N\C(=O)c2ccc(C(F)(F)F)cc2)NCc2ccccc2C(F)(F)F)n1` [Compound A-115], the concentration for half-maximal inhibition (IC50) at F1F0-ATPase was under 10 µM. Also, the EC50 in the assay on Ramos cells was under 10 µM.

Turning to `O=C(/N=C(/NCc1ccccc1C(F)(F)F)Nc1cccc(NS(=O)(=O)CC(F)(F)F)n1)c1ccc(C(F)(F)F)cc1` [Compound A-116], the IC50 on F1F0-ATPase was under 10 µM. For the same compound, the EC50 in the assay with Ramos cells was under 10 µM.

As to `O=C(/N=C(/NCc1ccccc1C(F)(F)F)Nc1cccc(NS(=O)(=O)C2CC2)n1)c1ccc(C(F)(F)F)cc1` [Compound A-117], at F1F0-ATPase, the 50% inhibitory concentration (IC50) was under 10 µM. Besides, in the assay with Ramos cells, the concentration for a half-maximal effect (EC50) was under 10 µM.

Consider `Nc1cccc(N/C(=N\C(=O)c2cccc(C(F)(F)F)c2)Nc2cccc(C(F)(F)F)c2)n1` [Compound A-118], for which the 50% inhibitory concentration (IC50) at F1F0-ATPase was over 10 µM. Further, the EC50 in the assay with Ramos cells is over 10 µM.

Regarding `COc1cccc(N/C(=N\C(=O)c2cccc(C(F)(F)F)c2)Nc2cccc(C(F)(F)F)c2)n1` [Compound A-119], on F1F0-ATPase, the IC50 is over 10 µM. In the assay with Ramos cells, the EC50 was over 10 µM.

Take `O=C(/N=C(/Nc1cccc(C(F)(F)F)c1)Nc1cccc(Br)n1)c1cccc(C(F)(F)F)c1` [Compound A-120]: the IC50 at F1F0-ATPase was over 10 µM. Besides, the EC50 with Ramos cells is over 10 µM.

Take `CS(=O)(=O)Nc1cccc(N/C(=N\C(=O)c2ccc(Cl)c(F)c2)NCc2ccc(F)c(Cl)c2)n1` [Compound A-121]: the half-inhibitory concentration (IC50) on F1F0-ATPase was under 10 µM. The half-maximal effective concentration (EC50) in the assay on Ramos cells was under 10 µM.

Consider `CS(=O)(=O)Nc1cccc(N/C(=N\C(=O)c2ccc(C(F)(F)F)cc2)NCC(F)(F)F)n1` [Compound A-122], for which, at F1F0-ATPase, the IC50 was under 10 µM. Besides, the 50% effective concentration (EC50) in the assay with Ramos cells is over 10 µM.

Consider `CS(=O)(=O)Nc1cccc(N/C(=N\C(=O)c2ccc(C(F)(F)F)cc2)Nc2cc(F)cc(Cl)c2)n1` [Compound A-123], for which the IC50 on F1F0-ATPase was under 10 µM. Besides, the EC50 in the assay on Ramos cells is under 10 µM.

For the compound `CC(C)(C)N/C(=N/C(=O)c1ccc(Cl)cc1)Nc1cccc(NS(=O)(=O)CC(F)(F)F)n1` [Compound A-124], the IC50 at F1F0-ATPase was under 10 µM. Besides, the EC50 with Ramos cells is under 10 µM.

With `O=C(/N=C(/NCC(F)(F)F)Nc1cccc(NS(=O)(=O)CC(F)(F)F)n1)c1ccc(Cl)cc1` [Compound A-125], the half-maximal inhibitory concentration (IC50) on F1F0-ATPase is under 10 µM. Further, in the assay on Ramos cells, the half-maximal effective concentration (EC50) was under 10 µM.

Consider `CC1(N/C(=N/C(=O)c2ccc(Cl)cc2)Nc2cccc(NS(=O)(=O)CC(F)(F)F)n2)CCC1` [Compound A-126], for which the IC50 on F1F0-ATPase was under 10 µM. In the assay on Ramos cells, the concentration for a half-maximal effect (EC50) is under 10 µM.

Turning to `O=C(/N=C(\Nc1cccc(NS(=O)(=O)CC(F)(F)F)n1)NC(C1CC1)C1CC1)c1ccc(Cl)cc1` [Compound A-127], on F1F0-ATPase, the IC50 is under 10 µM. In addition, in the assay on Ramos cells, the EC50 is under 10 µM.

For the compound `CC(C)(C)N/C(=N/C(=O)c1ccc(F)c(F)c1)Nc1cccc(NS(=O)(=O)CC(F)(F)F)n1` [Compound A-128], the 50% inhibitory concentration (IC50) at F1F0-ATPase is under 10 µM. Besides, the EC50 with Ramos cells is under 10 µM.

With `CC(C)(C)N/C(=N/C(=O)c1ccc(C(F)(F)F)cc1)Nc1cccc(NS(=O)(=O)CC(F)(F)F)n1` [Compound A-129], the IC50 on F1F0-ATPase was under 10 µM. Moreover, the EC50 with Ramos cells is under 10 µM.

Regarding `CCS(=O)(=O)Nc1cccc(N/C(=N\C(=O)c2ccc(Cl)cc2)Nc2cc(F)cc(Cl)c2)n1` [Compound A-130], the IC50 on F1F0-ATPase is under 10 µM. Further, the EC50 in the assay on Ramos cells is under 10 µM.

Turning to `CCS(=O)(=O)Nc1cccc(N/C(=N\C(=O)c2ccc(Cl)cc2)NCC(C)(C)C)n1` [Compound A-131], the IC50 on F1F0-ATPase is under 10 µM. Further, the EC50 in the assay on Ramos cells is under 10 µM.

For `CCS(=O)(=O)Nc1cccc(N/C(=N\C(=O)c2ccc(Cl)cc2)NCc2ccc(Cl)cc2F)n1` [Compound A-132], the IC50 at F1F0-ATPase is under 10 µM. Moreover, the EC50 with Ramos cells was under 10 µM.

Turning to `CC(C)(C)CN/C(=N/C(=O)c1ccc(Cl)cc1)Nc1cccc(NS(=O)(=O)c2ccccc2)n1` [Compound A-133], the IC50 at F1F0-ATPase is under 10 µM. Besides, the EC50 in the assay with Ramos cells was over 10 µM.

On to `CC(C)(C)CN/C(=N/C(=O)c1ccc(Cl)cc1)Nc1cccc(NS(=O)(=O)CC(F)(F)F)n1` [Compound A-134], for which the IC50 on F1F0-ATPase is under 10 µM. In addition, in the assay with Ramos cells, the concentration for a half-maximal effect (EC50) is under 10 µM.

In the case of `O=C(N=C(Nc1cc(F)cc(Cl)c1)Nc1cccc(NS(=O)(=O)CC(F)(F)F)n1)c1ccc(Cl)cc1` [Compound A-135], the IC50 on F1F0-ATPase was under 10 µM. Also, the EC50 in the assay on Ramos cells is under 10 µM.

Regarding `O=C(/N=C(/NCc1ccc(Cl)cc1F)Nc1cccc(NS(=O)(=O)CC(F)(F)F)n1)c1ccc(Cl)cc1` [Compound A-136], on F1F0-ATPase, the IC50 was under 10 µM. Further, the EC50 in the assay on Ramos cells is under 10 µM.

For `O=C(/N=C(/NCc1ccc(Cl)cc1F)Nc1cccc(NS(=O)(=O)c2ccccn2)n1)c1ccc(Cl)cc1` [Compound A-137], at F1F0-ATPase, the IC50 is under 10 µM. Also, in the assay with Ramos cells, the EC50 was over 10 µM.

Take `N#Cc1ccccc1S(=O)(=O)Nc1cccc(N/C(=N\C(=O)c2ccc(Cl)cc2)NCc2ccc(Cl)cc2F)n1` [Compound A-138]: the half-inhibitory concentration (IC50) on F1F0-ATPase was under 10 µM. In the assay with Ramos cells, the EC50 was under 10 µM.

`CC(C)(C)CN/C(=N/C(=O)c1ccc(Cl)cc1)Nc1cccc(NC(=O)C(C)(C)C)n1` [Compound A-139]: the concentration for half-maximal inhibition (IC50) on F1F0-ATPase is over 10 µM. In addition, the EC50 with Ramos cells is over 10 µM.

Turning to `CC(=O)Nc1cccc(NC(=NC(=O)c2ccc(Cl)cc2)Nc2cc(F)cc(Cl)c2)n1` [Compound A-140], the 50% inhibitory concentration (IC50) at F1F0-ATPase was under 10 µM. Further, the EC50 with Ramos cells is over 10 µM.

On to `CC(C)(C)CN/C(=N/C(=O)c1ccc(Cl)cc1)Nc1cccc(NS(=O)(=O)c2ccccc2C#N)n1` [Compound A-141], for which, at F1F0-ATPase, the IC50 was under 10 µM. Besides, in the assay on Ramos cells, the EC50 was under 10 µM.

For `N#Cc1ccccc1S(=O)(=O)Nc1cccc(NC(=NC(=O)c2ccc(Cl)cc2)Nc2cc(F)cc(Cl)c2)n1` [Compound A-142], on F1F0-ATPase, the half-maximal inhibitory concentration (IC50) is under 10 µM. In addition, in the assay with Ramos cells, the EC50 is under 10 µM.

For `CC(=O)Nc1cccc(N/C(=N\C(=O)c2ccc(Cl)cc2)NCC(C)(C)C)n1` [Compound A-143], the 50% inhibitory concentration (IC50) on F1F0-ATPase was under 10 µM. Besides, in the assay on Ramos cells, the EC50 is under 10 µM.

In the case of `CC(C)(C)CN/C(=N/C(=O)c1ccc(Cl)cc1)Nc1cccc(NS(=O)(=O)c2cccnc2)n1` [Compound A-144], the IC50 on F1F0-ATPase was under 10 µM. The EC50 in the assay with Ramos cells was over 10 µM.

Consider `Cn1cnc(S(=O)(=O)Nc2cccc(N/C(=N\C(=O)c3ccc(Cl)cc3)NCC(C)(C)C)n2)c1` [Compound A-145], for which, on F1F0-ATPase, the IC50 was over 10 µM. The EC50 in the assay on Ramos cells is over 10 µM.

For the compound `Cc1noc(C)c1S(=O)(=O)Nc1cccc(N/C(=N\C(=O)c2ccc(Cl)cc2)NCc2ccc(Cl)cc2F)n1` [Compound A-146], the IC50 at F1F0-ATPase is under 10 µM. Further, the EC50 with Ramos cells was under 10 µM.

For the compound `O=C(N=C(Nc1cc(F)cc(Cl)c1)Nc1cccc(NS(=O)(=O)c2cccnc2)n1)c1ccc(Cl)cc1` [Compound A-147], at F1F0-ATPase, the half-inhibitory concentration (IC50) is under 10 µM. For the same compound, the EC50 with Ramos cells is under 10 µM.

Take `O=C(/N=C(/NCc1ccc(Cl)cc1F)Nc1cccc(NS(=O)(=O)c2cccnc2)n1)c1ccc(Cl)cc1` [Compound A-148]: the IC50 at F1F0-ATPase was under 10 µM. The EC50 in the assay with Ramos cells is under 10 µM.

Consider `O=C(/N=C(/NCc1ccccc1C(F)(F)F)Nc1cccc(NS(=O)(=O)CC(F)(F)F)n1)c1ccc(F)c(F)c1` [Compound A-149], for which, on F1F0-ATPase, the IC50 is under 10 µM. In addition, the EC50 in the assay with Ramos cells is under 10 µM.

Regarding `CCS(=O)(=O)Nc1cccc(N/C(=N\C(=O)c2ccc(F)c(F)c2)NCc2ccccc2C(F)(F)F)n1` [Compound A-150], the IC50 at F1F0-ATPase was under 10 µM. In the assay with Ramos cells, the EC50 is over 10 µM.

Take `N#CCS(=O)(=O)Nc1cccc(N/C(=N\C(=O)c2ccc(F)c(F)c2)NCc2ccccc2C(F)(F)F)n1` [Compound A-151]: at F1F0-ATPase, the IC50 is under 10 µM. The EC50 in the assay with Ramos cells was under 10 µM.

By IC50 is commonly meant the concentration that inhibits the measured activity by half. In general, EC50 refers to the midpoint of the concentration-response curve.

Values taken from patent US9370507B2, “Pyridonyl guanidine F1F0-ATPase inhibitors and therapeutic uses thereof” (Lycera Corporation, priority 2010, dated 2016).
